Our source for the EC50 values is patent US12459922B2 (Gilead Sciences, Inc., priority 2022, dated 2025).

For the assay, the system named is endogenous cellular STAT1 (phosphorylated at Tyr701) in NCI-H1373 cells. Briefly: Phospho-STAT1 (Tyr701) LANCE Ultra TR-FRET Detection Assay. It is filed as cell-based. The following applies: Homo sapiens, NCI-H1373, 48 h, phospho-STAT1 (Tyr701) induction, read-out: NH1373 pSTAT1 EC50.

Regarding `CC(C)(O)c1cnc(-c2cc3ccn(C[C@@H]4CCC[C@H](Nc5cn[nH]c(=O)c5C(F)(F)F)C4)c(=O)c3cc2F)nc1` [Example 284, 7-fluoro-6-(5-(2-hydroxypropan-2-yl)pyrimidin-2-yl)-2-(((1R,3S)-3-((6-oxo-5-(trifluoromethyl)-1,6-dihydropyridazin-4-yl)amino)cyclohexyl)methyl)isoquinolin-1(2H)-one], the half-maximal effective concentration (EC50) is 51.7 nM. Consider `CNc1nc(-c2cc3ncn(CCC[C@H](C)Nc4cn[nH]c(=O)c4C(F)(F)F)c(=O)c3cc2F)ncc1C(F)(F)F` [Example 115, 6-fluoro-7-[4-(methylamino)-5-(trifluoromethyl)pyrimidin-2-yl]-3-[(4S)-4-[[6-oxo-5-(trifluoromethyl)-1H-pyridazin-4-yl]amino]pentyl]quinazolin-4-one], for which the EC50 was found to be 3.42 nM.

For `Nc1nc(-c2cc3ncn(CCC[C@H](COC(F)F)Nc4cn[nH]c(=O)c4C(F)(F)F)c(=O)c3cc2F)ncc1C(F)F` [Example 383, (R)-7-(4-amino-5-(difluoromethyl)pyrimidin-2-yl)-3-(5-(difluoromethoxy)-4-((6-oxo-5-(trifluoromethyl)-1,6-dihydropyridazin-4-yl)amino)pentyl)-6-fluoroquinazolin-4(3H)-one], the EC50 worked out at 18.5 nM.

Turning to `O=c1[nH]ncc(N[C@H](CCCn2cnc3cc(-c4ncc(C(F)F)cn4)c(F)cc3c2=O)C2CC2)c1C(F)(F)F` [Example 468, 3-[(4R)-4-cyclopropyl-4-[[6-oxo-5-(trifluoromethyl)-1H-pyridazin-4-yl]amino]butyl]-7-[5-(difluoromethyl)pyrimidin-2-yl]-6-fluoro-quinazolin-4-one], the EC50 is 42.5 nM. Take `C[C@@H](CCCn1cnc2cc(-c3ncc(OC(F)F)c(N)n3)c(F)cc2c1=O)Nc1cn[nH]c(=O)c1C(F)(F)F` [Example 367, (S)-7-(4-amino-5-(difluoromethoxy)pyrimidin-2-yl)-6-fluoro-3-(4-((6-oxo-5-(trifluoromethyl)-1,6-dihydropyridazin-4-yl)amino)pentyl)quinazolin-4(3H)-one]: the EC50 was 51.1 nM. Turning to `O=c1[nH]ncc(N[C@H]2CCC[C@H]2CCn2ccc3cc(-c4ncc(C(F)(F)F)cn4)c(F)cc3c2=O)c1C(F)(F)F` (racemic) [Example 437, (rac)-7-fluoro-2-(2-((1S,2S)-2-((6-oxo-5-(trifluoromethyl)-1,6-dihydropyridazin-4-yl)amino)cyclopentyl)ethyl)-6-(5-(trifluoromethyl)pyrimidin-2-yl)isoquinolin-1(2H)-one], the EC50 came to 102 nM.

Consider `O=c1[nH]ncc(N[C@H](CCCn2ccc3cc(-c4ccc(C(F)(F)F)cn4)c(F)c(F)c3c2=O)COC(F)F)c1C(F)(F)F` [Example 407, (R)-2-(5-(difluoromethoxy)-4-((6-oxo-5-(trifluoromethyl)-1,6-dihydropyridazin-4-yl)amino)pentyl)-7,8-difluoro-6-(5-(trifluoromethyl)pyridin-2-yl)isoquinolin-1(2H)-one], for which the EC50 was determined as 1.99 nM. For `C[C@H](Nc1cn[nH]c(=O)c1C(F)(F)F)/C(F)=C/Cn1ccc2cc(-c3ncc(C(F)(F)F)cn3)c(F)c(F)c2c1=O` [Example 132, (S,Z)-7,8-difluoro-2-(3-fluoro-4-((6-oxo-5-(trifluoromethyl)-1,6-dihydropyridazin-4-yl)amino)pent-2-en-1-yl)-6-(5-(trifluoromethyl)pyrimidin-2-yl)isoquinolin-1(2H)-one], the EC50 was determined as 3.47 nM. Then `CC#C[C@@H](CCCn1ccc2cc(-c3ncc(C(F)(F)F)cn3)c(F)c(F)c2c1=O)Nc1cn[nH]c(=O)c1C(F)(F)F` [Example 161, 7,8-difluoro-2-[(4R)-4-[[6-oxo-5-(trifluoromethyl)-1H-pyridazin-4-yl]amino]hept-5-ynyl]-6-[5-(trifluoromethyl)pyrimidin-2-yl]isoquinolin-1-one], with 28.7 nM; and `CC[C@@H](CCCn1ccc2cc(-c3ncc(C(F)(F)F)cn3)c(F)c(F)c2c1=O)Nc1cn[nH]c(=O)c1C(F)(F)F` [Example 353, (S)-7,8-difluoro-2-(4-((6-oxo-5-(trifluoromethyl)-1,6-dihydropyridazin-4-yl)amino)hexyl)-6-(5-(trifluoromethyl)pyrimidin-2-yl)isoquinolin-1(2H)-one], with 16.1 nM. Then `Cc1nc(-c2cc3ccn(CCC[C@H](C)Nc4cn[nH]c(=O)c4C(F)(F)F)c(=O)c3cc2F)nc(N)c1C(F)(F)F` [Example 327, (S)-6-(4-amino-6-methyl-5-(trifluoromethyl)pyrimidin-2-yl)-7-fluoro-2-(4-((6-oxo-5-(trifluoromethyl)-1,6-dihydropyridazin-4-yl)amino)pentyl)isoquinolin-1(2H)-one], with 3.05 nM; and `O=c1[nH]ncc(N2C[C@H](F)C[C@H]2CCCn2ccc3cc(-c4ncc(C(F)(F)F)cn4)c(F)cc3c2=O)c1C(F)(F)F` [Example 140, 7-fluoro-2-[3-[(2R,4R)-4-fluoro-1-[6-oxo-5-(trifluoromethyl)-1H-pyridazin-4-yl]pyrrolidin-2-yl]propyl]-6-[5-(trifluoromethyl)pyrimidin-2-yl]isoquinolin-1-one], with 585 nM. For the compound `CCOc1cnc(-c2cc3ccn(CCC[C@H](C)Nc4cn[nH]c(=O)c4C(F)(F)F)c(=O)c3cc2F)nc1N` [Example 192, (S)-6-(4-amino-5-ethoxypyrimidin-2-yl)-7-fluoro-2-(4-((6-oxo-5-(trifluoromethyl)-1,6-dihydropyridazin-4-yl)amino)pentyl)isoquinolin-1(2H)-one], the EC50 was 2.24 nM. With `Nc1nc(-c2cc3ccn(C[C@@H]4CCC[C@H](Nc5cn[nH]c(=O)c5C(F)(F)F)C4)c(=O)c3c(F)c2F)ncc1C(F)(F)F` [Example 234], the EC50 is 1.55 nM. Under `C[C@@H](CCCn1ccc2cc(-c3ccc(C(F)(F)F)cn3)ccc2c1=O)Nc1cn[nH]c(=O)c1C(F)(F)F` (single isomer, unassigned) [Example 3] stands 108 nM; under `NC1(c2cnc(-c3cc4ccn(C[C@@H]5CCC[C@H](Nc6cn[nH]c(=O)c6C(F)(F)F)C5)c(=O)c4cc3F)cn2)COC1` [Example 275, 6-(5-(3-aminooxetan-3-yl)pyrazin-2-yl)-7-fluoro-2-(((1R,3S)-3-((6-oxo-5-(trifluoromethyl)-1,6-dihydropyridazin-4-yl)amino)cyclohexyl)methyl)isoquinolin-1(2H)-one], 200 nM. As for `Nc1nc(-c2ccc3c(=O)n(CCC[C@H](COC(F)F)Nc4cn[nH]c(=O)c4C(F)(F)F)ccc3n2)ccc1C(F)(F)F` [Example 405, (R)-2-(6-amino-5-(trifluoromethyl)pyridin-2-yl)-6-(5-(difluoromethoxy)-4-((6-oxo-5-(trifluoromethyl)-1,6-dihydropyridazin-4-yl)amino)pentyl)-1,6-naphthyridin-5(6H)-one], the EC50 was found to be 9.67 nM.

Turning to `O=c1[nH]ncc(N[C@H](CCCn2cnc3cc(-c4ccc(C(F)F)cn4)c(F)cc3c2=O)COC(F)F)c1C(F)(F)F` [Example 402, (R)-3-(5-(difluoromethoxy)-4-((6-oxo-5-(trifluoromethyl)-1,6-dihydropyridazin-4-yl)amino)pentyl)-7-(5-(difluoromethyl)pyridin-2-yl)-6-fluoroquinazolin-4(3H)-one], the EC50 worked out at 3.13 nM. Under `Nc1nc(-c2cc3ncn(CCC[C@H](COC(F)F)Nc4cn[nH]c(=O)c4C(F)(F)F)c(=O)c3cc2F)ncc1OC(F)F` [Example 374, (R)-7-(4-amino-5-(difluoromethoxy)pyrimidin-2-yl)-3-(5-(difluoromethoxy)-4-((6-oxo-5-(trifluoromethyl)-1,6-dihydropyridazin-4-yl)amino)pentyl)-6-fluoroquinazolin-4(3H)-one] stands 44.8 nM; under `C[C@@H](CCCn1ccc2cc(-c3ncc(C(F)(F)F)c(N4CC(C)(O)C4)n3)c(F)cc2c1=O)Nc1cn[nH]c(=O)c1C(F)(F)F` [Example 191, (S)-7-fluoro-6-(4-(3-hydroxy-3-methylazetidin-1-yl)-5-(trifluoromethyl)pyrimidin-2-yl)-2-(4-((6-oxo-5-(trifluoromethyl)-1,6-dihydropyridazin-4-yl)amino)pentyl)isoquinolin-1(2H)-one], 26.9 nM; under `Cc1nc(-c2cc3ccn(C[C@@H]4CCC[C@H](Nc5cn[nH]c(=O)c5C(F)(F)F)C4)c(=O)c3cc2F)nc(N)c1Cl` [Example 276, 6-(4-amino-5-chloro-6-methylpyrimidin-2-yl)-7-fluoro-2-(((1R,3S)-3-((6-oxo-5-(trifluoromethyl)-1,6-dihydropyridazin-4-yl)amino)cyclohexyl)methyl)isoquinolin-1(2H)-one], 10.3 nM.

In the case of `O=c1[nH]ncc(NC[C@H]2C[C@H](Cn3ccc4cc(-c5ncc(C(F)(F)F)cn5)c(F)c(F)c4c3=O)C2)c1C(F)(F)F` [Example 130, 7,8-difluoro-2-(((1R,3R)-3-(((6-oxo-5-(trifluoromethyl)-1,6-dihydropyridazin-4-yl)amino)methyl)cyclobutyl)methyl)-6-(5-(trifluoromethyl)pyrimidin-2-yl)isoquinolin-1(2H)-one], the EC50 amounted to 1470 nM.

Consider `COc1cnc(-c2cc3ncn(CCC[C@@H]4C[C@@H](C)CN4c4cn[nH]c(=O)c4C(F)(F)F)c(=O)c3cc2F)nc1N` [Example 177, 7-(4-amino-5-methoxypyrimidin-2-yl)-6-fluoro-3-[3-[(2R,4R)-4-methyl-1-[6-oxo-5-(trifluoromethyl)-1H-pyridazin-4-yl]pyrrolidin-2-yl]propyl]quinazolin-4-one], for which the EC50 is 537 nM.

Consider `Nc1nc(-c2cc3ccn(CCC[C@H](COC(F)F)Nc4cn[nH]c(=O)c4C(F)(F)F)c(=O)c3cc2F)ncc1OC(F)F` [Example 369, (R)-6-(4-amino-5-(difluoromethoxy)pyrimidin-2-yl)-2-(5-(difluoromethoxy)-4-((6-oxo-5-(trifluoromethyl)-1,6-dihydropyridazin-4-yl)amino)pentyl)-7-fluoroisoquinolin-1(2H)-one], for which the half-maximal effective concentration (EC50) is 7.35 nM.

As to `CC[C@@H](CCCn1cnc2cc(-c3cnc(C(F)(F)F)c(N)n3)c(F)cc2c1=O)Nc1cn[nH]c(=O)c1C(F)(F)F` [Example 347, (S)-7-(6-amino-5-(trifluoromethyl)pyrazin-2-yl)-6-fluoro-3-(4-((6-oxo-5-(trifluoromethyl)-1,6-dihydropyridazin-4-yl)amino)hexyl)quinazolin-4(3H)-one], the EC50 came out at 93.4 nM.
